In ChEMBL document CHEMBL1649182, “Binding of faropenem and other beta-lactam agents to penicillin-binding proteins of pneumococci with various beta-lactam susceptibilities” (Antimicrob Agents Chemother, 2009):
In brackets after ≈: the same amount, converted by molar mass.

Key:
[1] = biological target: T1, Penicillin-binding protein 2B (Streptococcus pneumoniae serotype 4 (strain ATCC BAA-334 / TIGR4), UniProt P0A3M5); test: Displacement of Biocillin FL from Streptococcus pneumoniae 3676 PBP2B
T1 sequence (P0A3M5 whole entry): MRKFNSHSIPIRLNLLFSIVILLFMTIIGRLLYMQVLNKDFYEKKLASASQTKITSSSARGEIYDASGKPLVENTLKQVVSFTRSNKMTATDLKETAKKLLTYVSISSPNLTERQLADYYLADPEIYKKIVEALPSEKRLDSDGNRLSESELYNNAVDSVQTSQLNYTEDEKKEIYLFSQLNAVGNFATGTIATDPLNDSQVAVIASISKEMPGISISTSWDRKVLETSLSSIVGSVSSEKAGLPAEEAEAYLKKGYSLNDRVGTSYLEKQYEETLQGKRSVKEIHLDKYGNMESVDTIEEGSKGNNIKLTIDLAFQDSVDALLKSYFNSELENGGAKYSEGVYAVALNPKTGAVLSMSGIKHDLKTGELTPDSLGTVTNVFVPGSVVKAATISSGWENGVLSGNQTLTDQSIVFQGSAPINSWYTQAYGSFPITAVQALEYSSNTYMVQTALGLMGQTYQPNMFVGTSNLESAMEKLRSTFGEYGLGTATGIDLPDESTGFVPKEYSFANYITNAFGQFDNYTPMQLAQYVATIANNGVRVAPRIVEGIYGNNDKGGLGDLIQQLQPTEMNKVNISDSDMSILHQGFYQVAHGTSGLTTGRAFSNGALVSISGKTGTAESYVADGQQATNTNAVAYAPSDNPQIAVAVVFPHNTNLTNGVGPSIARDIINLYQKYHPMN

Streptococcus pneumoniae [2] = test: Antimicrobial activity against penicillin-sensitive Streptococcus pneumoniae 1076 by CLSI method; format: functional
[3] = Displacement of Biocillin FL from Streptococcus pneumoniae 3009 PBP2A
[4] = Displacement of Biocillin FL from Streptococcus pneumoniae 3243 PBP3
[5] = biological target: T2, Penicillin-binding protein 1A (Streptococcus pneumoniae serotype 4 (strain ATCC BAA-334 / TIGR4), UniProt Q04707); test: Displacement of Biocillin FL from Streptococcus pneumoniae 2527 PBP1A
T2 sequence (Q04707 whole entry): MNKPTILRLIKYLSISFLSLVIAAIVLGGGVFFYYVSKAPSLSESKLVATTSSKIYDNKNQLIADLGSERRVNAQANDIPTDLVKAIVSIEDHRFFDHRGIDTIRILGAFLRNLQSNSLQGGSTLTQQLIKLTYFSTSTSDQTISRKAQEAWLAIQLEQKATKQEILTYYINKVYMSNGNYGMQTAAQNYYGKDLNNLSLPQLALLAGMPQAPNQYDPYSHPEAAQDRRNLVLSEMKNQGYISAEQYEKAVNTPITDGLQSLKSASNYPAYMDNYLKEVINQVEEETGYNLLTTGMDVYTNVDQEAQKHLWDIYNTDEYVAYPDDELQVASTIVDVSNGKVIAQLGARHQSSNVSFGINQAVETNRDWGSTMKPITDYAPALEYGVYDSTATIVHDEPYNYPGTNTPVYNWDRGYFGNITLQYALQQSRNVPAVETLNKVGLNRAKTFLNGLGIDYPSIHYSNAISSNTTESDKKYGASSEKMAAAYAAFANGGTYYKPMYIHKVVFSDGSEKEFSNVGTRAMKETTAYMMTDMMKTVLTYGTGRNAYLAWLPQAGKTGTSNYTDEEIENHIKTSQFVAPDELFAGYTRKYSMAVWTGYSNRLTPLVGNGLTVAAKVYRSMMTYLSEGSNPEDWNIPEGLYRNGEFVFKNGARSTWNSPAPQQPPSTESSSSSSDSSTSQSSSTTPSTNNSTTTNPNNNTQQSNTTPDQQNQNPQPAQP

[6] = biological target: T1, Penicillin-binding protein 2B; test: Displacement of Biocillin FL from Streptococcus pneumoniae 3243 PBP2B
Streptococcus pneumoniae [7] = test: Antimicrobial activity against Streptococcus pneumoniae 2688 by CLSI method; format: functional
[8] = Displacement of Biocillin FL from Streptococcus pneumoniae 3413 PBP2A
[9] = biological target: T2, Penicillin-binding protein 1A; test: Displacement of Biocillin FL from Streptococcus pneumoniae 3676 PBP1A
[10] = Displacement of Biocillin FL from Streptococcus pneumoniae 3676 PBP2A
[11] = Displacement of Biocillin FL from Streptococcus pneumoniae 3676 PBP3
[12] = biological target: T1, Penicillin-binding protein 2B; test: Displacement of Biocillin FL from Streptococcus pneumoniae 1076 PBP2B
[13] = biological target: T1, Penicillin-binding protein 2B; test: Displacement of Biocillin FL from Streptococcus pneumoniae 1077 PBP2B
[14] = biological target: T2, Penicillin-binding protein 1A; test: Displacement of Biocillin FL from Streptococcus pneumoniae 24 PBP1A
[15] = biological target: T3, Penicillin-binding protein 2x (Streptococcus pneumoniae serotype 4 (strain ATCC BAA-334 / TIGR4), UniProt P14677); test: Displacement of Biocillin FL from Streptococcus pneumoniae 2527 PBP2X
T3 sequence (P14677 whole entry): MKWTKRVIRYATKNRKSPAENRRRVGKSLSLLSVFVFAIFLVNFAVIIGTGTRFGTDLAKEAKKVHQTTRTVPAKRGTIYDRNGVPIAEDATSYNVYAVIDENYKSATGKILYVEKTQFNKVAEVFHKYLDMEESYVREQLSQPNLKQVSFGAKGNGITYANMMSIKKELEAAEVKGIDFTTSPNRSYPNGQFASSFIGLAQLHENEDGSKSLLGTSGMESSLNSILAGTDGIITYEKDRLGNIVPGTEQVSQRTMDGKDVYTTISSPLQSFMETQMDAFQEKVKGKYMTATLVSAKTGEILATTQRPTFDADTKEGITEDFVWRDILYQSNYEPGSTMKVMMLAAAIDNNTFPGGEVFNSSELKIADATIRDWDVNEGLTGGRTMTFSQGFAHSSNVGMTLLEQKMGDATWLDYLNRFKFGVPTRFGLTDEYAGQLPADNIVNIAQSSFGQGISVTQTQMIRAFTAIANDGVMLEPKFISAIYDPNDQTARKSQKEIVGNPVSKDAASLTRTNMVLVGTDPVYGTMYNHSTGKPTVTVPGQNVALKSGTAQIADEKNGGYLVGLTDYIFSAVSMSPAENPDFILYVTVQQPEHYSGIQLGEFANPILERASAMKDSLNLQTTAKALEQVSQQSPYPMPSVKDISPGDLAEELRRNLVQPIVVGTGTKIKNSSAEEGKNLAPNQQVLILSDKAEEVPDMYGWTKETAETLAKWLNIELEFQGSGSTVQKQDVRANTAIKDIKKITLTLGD

Streptococcus pneumoniae [16] = test: Antimicrobial activity against penicillin-sensitive Streptococcus pneumoniae 1077 by CLSI method; format: functional
[17] = Displacement of Biocillin FL from Streptococcus pneumoniae 24 PBP3
Streptococcus pneumoniae [18] = test: Antimicrobial activity against Streptococcus pneumoniae 1394 by CLSI method; format: functional
[19] = biological target: T2, Penicillin-binding protein 1A; test: Displacement of Biocillin FL from Streptococcus pneumoniae 3243 PBP1A
[20] = biological target: T3, Penicillin-binding protein 2x; test: Displacement of Biocillin FL from Streptococcus pneumoniae 1077 PBP2X
[21] = biological target: T1, Penicillin-binding protein 2B; test: Displacement of Biocillin FL from Streptococcus pneumoniae 3665 PBP2B

CC1(C)S[C@@H]2[C@H](NC(=O)[C@H](N)c3ccc(O)cc3)C(=O)N2[C@H]1C(=O)O [AMOXICILLIN]
IC50 [1]: 394 nM
MIC (Streptococcus pneumoniae [2]): 0.016 µg/mL (≈ 0.0438 µM)
IC50 [3]: 0.08 µg/mL (≈ 0.219 µM)
IC50 [4]: 0.006 µg/mL (≈ 0.0164 µM)
IC50 [5]: 134 nM
IC50 [6]: 79.4 nM
MIC (Streptococcus pneumoniae [7]): 16 µg/mL (≈ 43.8 µM)
IC50 [8]: 0.034 µg/mL (≈ 0.093 µM)
IC50 [9]: 1150 nM
IC50 [10]: 0.066 µg/mL (≈ 0.181 µM)
IC50 [11]: 0.019 µg/mL (≈ 0.052 µM)
IC50 [12]: 151 nM
IC50 [13]: 82.1 nM
IC50 [14]: 10.9 nM
IC50 [15]: 10.9 nM
MIC (Streptococcus pneumoniae [16]): 0.016 µg/mL (≈ 0.0438 µM)
IC50 [17]: 0.049 µg/mL (≈ 0.134 µM)
MIC (Streptococcus pneumoniae [18]): 8 µg/mL (≈ 21.9 µM)
IC50 [19]: 161 nM
IC50 [20]: 60.2 nM
IC50 [21]: 602 nM

CO/N=C(\C(=O)N[C@@H]1C(=O)N2C(C(=O)O)=C(COC(N)=O)CS[C@H]12)c1ccco1 [CEFUROXIME]
IC50 [1]: 1110 nM
MIC (Streptococcus pneumoniae [2]): 0.03 µg/mL (≈ 0.0707 µM)
IC50 [3]: 0.008 µg/mL (≈ 0.0189 µM)
IC50 [4]: 0.023 µg/mL (≈ 0.0542 µM)
IC50 [5]: 14.1 nM
IC50 [6]: 54.2 nM
MIC (Streptococcus pneumoniae [7]): 4 µg/mL (≈ 9.43 µM)
IC50 [8]: 0.002 µg/mL (≈ 0.00471 µM)
IC50 [9]: 18.9 nM
IC50 [10]: 0.011 µg/mL (≈ 0.0259 µM)
IC50 [11]: 0.048 µg/mL (≈ 0.113 µM)
IC50 [12]: 403 nM
IC50 [13]: 2740 nM
IC50 [14]: 9.43 nM
IC50 [15]: 7.07 nM
MIC (Streptococcus pneumoniae [16]): 0.03 µg/mL (≈ 0.0707 µM)
IC50 [17]: 0.002 µg/mL (≈ 0.00471 µM)
MIC (Streptococcus pneumoniae [18]): 16 µg/mL (≈ 37.7 µM)
IC50 [19]: 14.1 nM
IC50 [20]: 14.1 nM
IC50 [21]: 34700 nM

C[C@@H](O)[C@H]1C(=O)N2C(C(=O)O)=C([C@H]3CCCO3)S[C@H]12 [FAROPENEM]
IC50 [1]: 151 nM
MIC (Streptococcus pneumoniae [2]): 0.03 µg/mL (≈ 0.105 µM)
IC50 [3]: 0.016 µg/mL (≈ 0.0561 µM)
IC50 [4]: 0.004 µg/mL (≈ 0.014 µM)
IC50 [5]: 80.6 nM
IC50 [6]: 45.6 nM
MIC (Streptococcus pneumoniae [7]): 0.06 µg/mL (≈ 0.21 µM)
IC50 [8]: 0.007 µg/mL (≈ 0.0245 µM)
IC50 [9]: 87.6 nM
IC50 [10]: 0.053 µg/mL (≈ 0.186 µM)
IC50 [11]: 0.009 µg/mL (≈ 0.0315 µM)
IC50 [12]: 45.6 nM
IC50 [13]: 28 nM
IC50 [14]: 31.5 nM
IC50 [15]: 116 nM
MIC (Streptococcus pneumoniae [16]): 0.03 µg/mL (≈ 0.105 µM)
IC50 [17]: 0.015 µg/mL (≈ 0.0526 µM)
MIC (Streptococcus pneumoniae [18]): 0.03 µg/mL (≈ 0.105 µM)
IC50 [19]: 14 nM
IC50 [20]: 687 nM
IC50 [21]: 165 nM

C[C@@H](O)[C@H]1C(=O)N2C(C(=O)O)=C(SCCNC=N)C[C@H]12 [IMIPENEM ANHYDROUS]
IC50 [1]: 1320 nM
MIC (Streptococcus pneumoniae [2]): 0.008 µg/mL (≈ 0.0267 µM)
IC50 [3]: 0.054 µg/mL (≈ 0.18 µM)
IC50 [4]: 0.095 µg/mL (≈ 0.317 µM)
IC50 [5]: 140 nM
IC50 [6]: 220 nM
MIC (Streptococcus pneumoniae [7]): 0.25 µg/mL (≈ 0.835 µM)
IC50 [8]: 0.337 µg/mL (≈ 1.13 µM)
IC50 [9]: 838 nM
IC50 [10]: 0.115 µg/mL (≈ 0.384 µM)
IC50 [11]: 0.188 µg/mL (≈ 0.628 µM)
IC50 [12]: 237 nM
IC50 [13]: 154 nM
IC50 [14]: 1470 nM
IC50 [15]: 60.1 nM
MIC (Streptococcus pneumoniae [16]): 0.008 µg/mL (≈ 0.0267 µM)
IC50 [17]: 0.2 µg/mL (≈ 0.668 µM)
MIC (Streptococcus pneumoniae [18]): 0.25 µg/mL (≈ 0.835 µM)
IC50 [19]: 608 nM
IC50 [20]: 598 nM
IC50 [21]: 2170 nM

CC1(C)S[C@@H]2[C@H](NC(=O)Cc3ccccc3)C(=O)N2[C@H]1C(=O)O [PENICILLIN G]
IC50 [1]: 789 nM
MIC (Streptococcus pneumoniae [2]): 0.03 µg/mL (≈ 0.0897 µM)
IC50 [3]: 0.011 µg/mL (≈ 0.0329 µM)
IC50 [4]: 0.007 µg/mL (≈ 0.0209 µM)
IC50 [5]: 5.98 nM
IC50 [6]: 182 nM
MIC (Streptococcus pneumoniae [7]): 8 µg/mL (≈ 23.9 µM)
IC50 [8]: 0.015 µg/mL (≈ 0.0449 µM)
IC50 [9]: 35.9 nM
IC50 [10]: 0.013 µg/mL (≈ 0.0389 µM)
IC50 [11]: 0.007 µg/mL (≈ 0.0209 µM)
IC50 [12]: 179 nM
IC50 [13]: 111 nM
IC50 [14]: 23.9 nM
IC50 [15]: 26.9 nM
MIC (Streptococcus pneumoniae [16]): 0.03 µg/mL (≈ 0.0897 µM)
IC50 [17]: 0.004 µg/mL (≈ 0.012 µM)
MIC (Streptococcus pneumoniae [18]): 4 µg/mL (≈ 12 µM)
IC50 [19]: 23.9 nM
IC50 [20]: 23.9 nM
IC50 [21]: 467 nM
